We go through three compounds from patent publication US10294212B2 (CURADEV PHARMA PRIVATE LTD., priority 2013, dated 2019).

Read-outs that look alike come from different tables or passages of the source.

For experiment [1], the target named is Human indoleamine 2,3-dioxygenase1 (hIDO1) (Homo sapiens (Human), UniProt P14902). The experiment can be described thus: In-vitro IDO1 enzyme assay (conversion of L-tryptophan to KYN). The following applies: read-out: IC50 (IDO1) Enz. The experiment is classed as biochemical. A digest of the protocol: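 Kynurenine formation quantified by HPLC absorbance at 360 nm or LC/MS/MS after TCA quench and 15 min at 65 °C. Reaction: 10 nM N-His hIDO1, 30 μM tryptophan, ascorbate/methylene blue/catalase, pH 6.5 phosphate buffer, 37 °C for 30 min. Inhibition relative to 1% DMSO vehicle, fitted to IC50.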

In experiment [2] the target is Human indoleamine 2,3-dioxygenase-2 (hIDO2) (Homo sapiens (Human), UniProt Q6ZQW0). In words: In-vitro IDO2 enzyme assay. The experiment is classed as biochemical. The text has this:
Human indoleamine 2,3-dioxygenase-2 (hIDO2) catalyzes the oxidative cleavage of the pyrrole ring of the indole nucleus of tryptophan to yield N-formylkynurenine which can be converted to kynurenine (KYN) by deformylation. hIDO2 with an C-terminal His tag (Sino Biological Inc (China)) was expressed in E. coli cells and the protein was purified using standard methods well known in the art. Unless otherwise stated, all materials were procured from Sigma Aldrich, Mo., USA.
The assay monitoring the conversion of L-tryptophan to KYN was carried out as follows. hIDO2 (160 nM) was incubated with tryptophan (5000 04) in the presence of ascorbic acid (20 mM), methylene blue (10 04) and catalase (100 μg/mL) in potassium phosphate buffer (100 mM; pH 7.5) at 37 degrees C. for 30 min. The reaction was terminated with 30% trichloroacetic acid (TCA) and further incubated at 65 degrees C. for 15 min to fully convert N-formylkynurenine to KYN. The reaction mixture was then centrifuged to remove sediments, and the KYN in the supernatant was measured by UV-visible absorption spectroscopy at 360 nm using a Waters HPLC system fitted with a C-18 column or by LC/MS/MS (C. J. D Austin et. Al, Amino Acid 2009, 565-578).
Percent inhibition at each concentration of test compounds was determined by determining the decrease in KYN with reference to the reaction control with 1% DMSO vehicle. Data were analyzed using nonlinear regression to generate IC50 values using Graph Pad Prism® 5. Compounds 2 and 184 were tested as described above.

Experiment [3] concerns plasma and tumor tissue KYN. In words: Tumor penetration: KYN levels in tumor and plasma, CT26/Balb/C tumor model. The following applies: 50 mg/kg oral BID 4 days, vs vehicle; for plasma KYN levels reduced: 2 hours post-dosing. The experiment is classed as in vivo, Balb/c mice. Here is the method: i. Tumor penetration in mice: Tumor penetration of test compounds and KYN levels in tumor and plasma of treated animals were determined in a syngeneic CT26/Balb/C tumor model. Briefly, three to four tumor bearing Balb/c mice (tumor size=150-200 mm^3) were dosed twice a day orally for 4 days with test compound (for e.g., compound 2) at 50 mg/kg formulated in carboxymethyl cellulose (CMC). A vehicle control was included along with the test compounds. Blood samples were collected by retro-orbital bleed or terminal cardiac bleed into tubes containing heparin just before the final dose and at two hours after the final dose. Animals were sacrificed two hours post-final dose. Tumors were harvested and weighed immediately. Tumors were then snap frozen in liquid nitrogen, pulverized and dissolved in homogenization buffer (chilled acetonitrile/water/formic acid (10:90:0.1 v/v/v) to extract test compounds and kynurenine, KYN.
Plasma and tumor tissue KYN levels were reduced in test compound treated animals compared to control vehicle-treated animals (TABLE 7). For example, compounds 2 and 97 each reduced tumor KYN levels by 81%. At 2 hours post-dosing, the plasma KYN levels were reduced by 62% and 67% respectively in the animals treated with compound 2 or 97 compared to the control animals dosed with vehicle alone. The concentration of test compounds in the tumor tissue extracts is determined by LC/MS/MS using an API 4000 or AP15500 Qtrap mass spectrometer.

For the next experiment, the system named is CT-26 tumor cells. The experiment can be described thus: Combination therapy with Doxorubicin in CT-26 syngeneic tumor model. In kind it is in vivo, Balb/c mice. To be noted: vs DOXO or compound alone. Here is the method: Test compounds were evaluated in mice syngeneic tumor models described above for usefulness in combination therapy with a chemotheraputic agent, Doxorubicin (DOXO, Sterling Biotech, India).
Tumor bearing Balb/c mice as described earlier were randomized to receive vehicle alone, test compound alone, DOXO alone, or test compound in combination with DOXO. Animals in DOXO treated arm were injected intraperitoneally on day 1 with DOXO formulated in normal saline (7.5 mg/kg). Five days later, the animals were dosed twice a day orally with either a test compound or vehicle alone during the test period till the end of the experiment. A second smaller dose of DOXO at 3 or 4 mg/Kg was administered to the DOXO-treated animals about 3 weeks after the first DOXO dose. Tumor volume was measured in animals as described above.
Non-limiting examples follow. Test compound 97 was formulated in 40% PEG, 20% PG, 10% DACM in normal saline. From day 5 after the first DOXO dose was administered till the end of the study period on day 35, the animals were dosed twice a day orally with compound 97 (75 mg/kg). Three weeks later, the DOXO-treated animals were injected i.p. with a second dose of DOXO (3 mg/kg). Tumor volume was monitored as described above. Tumor tissues and final blood samples were harvested from the mice 4 hours after the final test compound dose. […]

[4] abbreviates: IDO2 Enzyme assay, read-out: IC50 values IDO2.
Where [5] appears, read: IDO2 enzyme assay, read-out: IDO2 IC50.

In general, IC50 refers to the concentration needed to halve the response being measured.

Chain of Human indoleamine 2,3-dioxygenase-2 (hIDO2) (Q6ZQW0 whole entry): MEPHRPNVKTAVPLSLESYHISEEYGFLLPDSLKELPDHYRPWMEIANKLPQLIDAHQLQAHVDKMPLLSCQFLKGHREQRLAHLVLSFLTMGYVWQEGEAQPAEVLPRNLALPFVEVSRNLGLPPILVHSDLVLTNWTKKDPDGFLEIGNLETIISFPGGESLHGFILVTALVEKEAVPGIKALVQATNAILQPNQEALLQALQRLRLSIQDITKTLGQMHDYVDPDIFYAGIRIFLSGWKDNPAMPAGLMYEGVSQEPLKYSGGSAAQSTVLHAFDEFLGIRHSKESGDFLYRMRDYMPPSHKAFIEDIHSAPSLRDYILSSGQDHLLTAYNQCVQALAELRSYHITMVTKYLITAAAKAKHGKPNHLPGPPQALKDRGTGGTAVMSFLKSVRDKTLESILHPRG
Chain of Human indoleamine 2,3-dioxygenase1 (hIDO1) (P14902 whole entry): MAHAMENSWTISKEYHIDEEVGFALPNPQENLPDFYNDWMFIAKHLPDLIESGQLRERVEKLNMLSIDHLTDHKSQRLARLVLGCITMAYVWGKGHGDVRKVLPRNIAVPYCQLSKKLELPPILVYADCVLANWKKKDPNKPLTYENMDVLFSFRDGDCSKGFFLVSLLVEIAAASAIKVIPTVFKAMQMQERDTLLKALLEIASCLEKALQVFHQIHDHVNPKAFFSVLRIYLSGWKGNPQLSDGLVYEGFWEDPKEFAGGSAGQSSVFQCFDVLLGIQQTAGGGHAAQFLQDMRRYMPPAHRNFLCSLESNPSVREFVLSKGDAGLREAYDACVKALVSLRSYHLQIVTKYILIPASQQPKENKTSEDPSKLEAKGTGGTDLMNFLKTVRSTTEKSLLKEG

Regarding `Nc1oc2cnccc2c1Nc1ccc(F)c(Cl)c1` [Compound 2, N^3-(3-Chloro-4-fluoro-phenyl)-furo[2,3-c]pyridine-2,3-diamine], the IC50 in experiment [1] is less than 200 nM; in experiment [2] (setting [4]), less than 1000 nM; in experiment [2] (setting [5]), less than 1000 nM. Besides, the “tumor KYN levels reduced” value in experiment [3] was 81%. Further, the “plasma KYN levels reduced” value in experiment [3] was found to be 62%.
On to `Nc1oc2c(-c3ccncc3)nccc2c1Nc1ccc(F)c(Cl)c1` [Compound 97, N^3-(3-Chloro-4-fluorophenyl)-7-(pyridin-4-yl)furo[2,3-c]pyridine-2,3-diamine], for which the “tumor volume, combination with DOXO” value in the experiment on CT-26 tumor cells (75 mg/kg oral BID + DOXO 7.5 then 3 mg/kg i.p.) is listed as “greater reduction in tumor volume”. In experiment [1], the IC50 is less than 200 nM. In addition, in experiment [3], the “tumor KYN levels reduced” value turned out to be 81% and the “plasma KYN levels reduced” value is recorded as 67%.
With `Nc1oc2c(-c3ccncc3)nccc2c1Nc1ccc(F)c(F)c1` [Compound 184, N^3-(3,4-difluorophenyl)-7-(pyridin-4-yl)furo[2,3-c]pyridine-2,3-diamine], the “tumor volume, combination with DOXO” value in the experiment on CT-26 tumor cells (50 mg/kg oral BID + DOXO) is on record as “greater reduction in tumor volume”. Further, the IC50 was less than 200 nM in experiment [1], less than 1000 nM in experiment [2] (setting [4]) and less than 1000 nM in experiment [2] (setting [5]).
